Results on 2 molecules are retold here after ChEMBL document CHEMBL6074695, “Structural Aspects of Mycobacterium tuberculosis DNA Gyrase Targeted by Novel Bacterial Topoisomerase Inhibitors” (ACS Med Chem Lett, 2024).

This experiment relates to Mycobacterium tuberculosis. In kind it is functional, organism-based. Particulars: H37Rv, 120 h.

≈ marks a conversion by molar mass, not a printed value.

As to `COc1ccc2nccc(CCN3CCC(NCc4cc(F)c(Cl)c(F)c4)CC3)c2n1`, inhibition was half-maximal at 7 nM (IC50).

On to `O=c1ccc2ncc(=O)n3c2n1C[C@H]3CN1CCC(NCc2cc3c(cn2)OCCC3)CC1` [GEPOTIDACIN], for which, for the setting “time 5 day”, the MIC (usually the lowest concentration that inhibits growth of the organism) was determined as 0.86 µM (≈ 0.386 µg/mL).
